Assay results from PubChem BioAssay AID488795 (NMMLSC, 2010).
Active and inactive are the calls of the source. How the calls were made is not given here.

Molecular target: Vacuolar aminopeptidase 1 (Saccharomyces cerevisiae (strain ATCC 204508 / S288c)) (UniProt P14904)
Assay: yeast TOR reporter LAP4 modulators, analogs – cell-based, KU SAR set, flow cytometry, SAR follow-up (AID 488795)
Settings: S. cerevisiae Lap4-GFP reporter, flow cytometry MCF

Vacuolar aminopeptidase 1 (Saccharomyces cerevisiae (strain ATCC 204508 / S288c)), sequence (P14904 whole entry, looked up): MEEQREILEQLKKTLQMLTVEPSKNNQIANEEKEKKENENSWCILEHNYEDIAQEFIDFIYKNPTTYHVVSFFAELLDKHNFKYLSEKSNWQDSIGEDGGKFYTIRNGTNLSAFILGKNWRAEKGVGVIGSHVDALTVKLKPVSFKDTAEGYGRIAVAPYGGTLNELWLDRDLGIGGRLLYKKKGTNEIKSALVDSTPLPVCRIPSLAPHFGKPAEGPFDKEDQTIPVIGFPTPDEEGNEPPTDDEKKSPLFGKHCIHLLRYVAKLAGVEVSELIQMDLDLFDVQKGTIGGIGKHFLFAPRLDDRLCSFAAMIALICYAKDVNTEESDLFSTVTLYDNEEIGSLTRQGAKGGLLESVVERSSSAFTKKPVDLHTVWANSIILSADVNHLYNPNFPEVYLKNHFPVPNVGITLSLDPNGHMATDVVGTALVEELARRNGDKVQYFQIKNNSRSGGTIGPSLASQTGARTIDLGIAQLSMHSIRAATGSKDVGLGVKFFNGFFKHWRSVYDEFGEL

Row | Compound | EC50
1 | CSC1=NS(=O)(=O)c2c(C)nn(C)c2S1 | inactive
2 | CC(C)(C)C(=O)C(Cl)C(=O)Nc1ccccc1 (centres undefined) | 6.93 µM
3 | Clc1ccc(N=c2ssnc2Cl)cc1 | 3.73 µM
4 | CCCCC(=O)NNC(=S)NC(=O)c1ccc(C)cc1 | 4.05 µM
5 | CCSc1nnc(NC(=O)c2ccccn2)s1 | inactive
6 | O=C(OCn1ncc(Br)c(Br)c1=O)c1ccc(F)cc1 | 4.01 µM
7 | C/C(=N\NC(=O)c1ccc(C(C)(C)C)cc1)c1ccccn1 | inactive
8 | O=C(CCc1ccccc1)NNC(=S)NC(=O)c1ccccc1 | 3.42 µM
9 | COC(=O)CCS(=O)(=O)c1nc(-c2ccccc2)cc(C(F)(F)F)n1 | 19.9 µM
10 | C/C(=N\NC(=O)c1cccc(Br)c1)c1ccccn1 | inactive
11 | O=S(=O)(CCN(CCS(=O)(=O)C(F)(F)F)CC1CCCO1)C(F)(F)F (centres undefined) | 12.5 µM
12 | COc1ccc([N+](=O)[O-])c(S(=O)(=O)c2ccc(Cl)cc2)n1 | 3.53 µM
13 | CCC(C)Nc1nc(N)c([N+](=O)[O-])c(Nc2cccc(F)c2)n1 (centres undefined) | inactive
14 | CCOC(=O)CSC1=NC(=O)/C(=C\c2ccc(Cl)cc2)S1 | inactive
15 | CCOC(=O)CS(=O)(=O)c1nc(-c2ccccc2)cc(C(F)(F)F)n1 | 6.32 µM
16 | Nc1cc(Oc2cccc(Cl)c2)nc(NCc2ccccc2)n1 | inactive
17 | Cc1ccc(S(=O)(=O)c2ccc([N+](=O)[O-])cn2)cc1 | 2.55 µM

Row | Compound | EC50
18 | O=C(OCn1ncc(Br)c(Br)c1=O)c1c(F)cccc1F | 4.33 µM
19 | CCOC(=O)CCS(=O)(=O)c1nc(-c2ccccc2)cc(C(F)(F)F)n1 | 27.6 µM
20 | Oc1c(I)cc(I)c2cccnc12 | inactive
21 | CCCOc1ccc(C(=O)NNC(=S)NC(=O)CC)cc1 | 4.38 µM
22 | Cc1ccc(S(=O)(=O)c2ncccc2[N+](=O)[O-])cc1 | inactive
23 | CNc1nc(N)c([N+](=O)[O-])c(Nc2cccc(F)c2)n1 | 8.37 µM
24 | O=[N+]([O-])c1ccc(S(=O)(=O)c2cccc(C(F)(F)F)c2)nc1 | 1.94 µM
25 | O=c1/c(=C/c2cccc3ccccc23)sc2ncnn12 | 4.36 µM
26 | Nc1cc(Nc2cccc(F)c2)nc(NCc2ccccc2)n1 | inactive
27 | O=[N+]([O-])c1cc(S(=O)(=O)C(F)(F)F)ccc1Sc1nc2ccccc2s1 | 14 µM
28 | O=[N+]([O-])c1ccc(O)c2ncccc12 | 6.57 µM
29 | COc1ccc([N+](=O)[O-])c(S(=O)(=O)c2ccccc2)n1 | 11.9 µM
30 | Cc1ccc2nc(Cl)c3nnnn3c2c1 | 4.47 µM
31 | O=C(Nc1nc(-c2ccccn2)cs1)C1COc2ccccc2O1 (centres undefined) | inactive
32 | CCN(CC)C(=O)Oc1ccnc2cc(Cl)ccc12 | inactive
33 | O=c1cc(CSc2ccc(Cl)cc2)nc(-c2ccccn2)[nH]1 | 1.22 µM
34 | CN1CCN(C(=O)c2cc(COc3c(F)cccc3F)on2)CC1c1ccccc1 (centres undefined) | inactive
